# Experimental data reported in patent publication US8183380B2, “2-aminoquinolines” (Hoffmann-La Roche Inc., priority 2008, dated 2012).
# Molecular target: T1, recombinant human 5-HT5A receptor (Homo sapiens, UniProt P47898)
# T1 construct: expressed in transfected cells; host or cells: HEK-EBNA (Human Embryonic Kidney-EBNA) cells, transient cDNA expression; membranes
# Test: [3H]LSD radioligand binding assay
# Conditions: [3H]LSD (approximately 1 nM); membranes from transiently expressed 5-HT5A receptors in HEK-EBNA cells; Ki from IC50 by Cheng-Prussoff equation
# Method: A [^3H]LSD radioligand binding assay was used to determine the affinity of the compounds for the recombinant human 5-HT5A receptor, in membranes from transiently (cDNA) expressed 5-HT5A receptors in Human Embryonic Kidney-EBNA (HEK-EBNA) cells. Assay buffer consisted of Tris (50 mM) buffer containing 1 mM EGTA, 10 mM MgCl2 (pH 7.4) and 10 μM pargyline. The binding assay was carried out in 96-well-plates in the presence of [^3H]LSD (approximately 1 nM), approximately 2 μg/well of membrane protein, and 0.5 mg of Ysi-poly-1-lysine SPA beads in a final volume of 200 μl of buffer. Non-specific binding was defined using methiothepin 2 μM. Compounds were tested at 10 concentrations. All assays were conducted in duplicate and repeated at least two times. Assay plates were incubated for 120 min at room temperature before centrifugation. Bound ligand was determined using a Packard Topcount scintillation counter. IC50 values were calculated using a non-linear curve fitting program and Ki values calculated using the Cheng-Prussoff equation.
# T1 sequence (P47898 whole entry): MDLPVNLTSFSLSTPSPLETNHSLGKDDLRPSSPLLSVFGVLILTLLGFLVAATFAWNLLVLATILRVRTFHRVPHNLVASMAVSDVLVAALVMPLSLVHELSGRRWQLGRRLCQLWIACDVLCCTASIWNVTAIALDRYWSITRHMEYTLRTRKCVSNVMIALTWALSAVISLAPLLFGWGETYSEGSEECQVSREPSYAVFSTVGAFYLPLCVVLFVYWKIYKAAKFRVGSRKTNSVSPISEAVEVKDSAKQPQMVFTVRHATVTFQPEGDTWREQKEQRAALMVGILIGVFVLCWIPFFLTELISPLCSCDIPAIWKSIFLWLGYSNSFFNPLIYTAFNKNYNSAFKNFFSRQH
row,SMILES,Ki
1,"COc1cccc2c1C(Nc1ccc3cc(NC(=O)NC(C)C)ccc3n1)CC2 (racemic) [Example 12, rac-1-Isopropyl-3-[2-(7-methoxy-indan-1-ylamino)-quinolin-6-yl]-urea]",1.5 nM
2,"COc1cccc2c1C(Nc1ccc3cc(NC(=O)NC(C)C)ccc3n1)CCC2 (racemic) [Example 15, rac-1-Isopropyl-3-[2-(8-methoxy-1,2,3,4-tetrahydro-naphthalen-1-ylamino)-quinolin-6-yl]-urea]",7.7 nM
3,"CN1CCC(NC(=O)Nc2ccc3nc(NC4COc5ccccc54)ccc3c2)CC1 (racemic) [Example 35, rac-1-[2-(2,3-Dihydro-benzofuran-3-ylamino)-quinolin-6-yl]-3-(1-methyl-piperidin-4-yl)-urea]",9.6 nM
4,"COc1cccc2c1C(Nc1ccc3cc(NC(=O)NC4CCN(C)CC4)ccc3n1)CC2 (racemic) [Example 40, rac-1-[2-(7-Methoxy-indan-1-ylamino)-quinolin-6-yl]-3-(1-methyl-piperidin-4-yl)-urea]",2.2 nM
5,"COc1cccc2c1C(Nc1ccc3cc(NC(=O)NC4CCN(C(C)C)CC4)ccc3n1)CC2 (racemic) [Example 44, rac-1-(1-Isopropyl-piperidin-4-yl)-3-[2-(7-methoxy-indan-1-ylamino)-quinolin-6-yl]-urea]",3 nM
6,"COCCN1CCC(NC(=O)Nc2ccc3nc(NC4CCc5cccc(OC)c54)ccc3c2)CC1 (racemic) [Example 45, rac-1-[1-(2-Methoxy-ethyl)-piperidin-4-yl]-3-[2-(7-methoxy-indan-1-ylamino)-quinolin-6-yl]-urea]",3 nM
7,"COc1cccc2c1C(Nc1ccc3cc(NC(=O)NC4CCN(CCF)CC4)ccc3n1)CC2 (racemic) [Example 46, rac-1-[1-(2-Fluoro-ethyl)-piperidin-4-yl]-3-[2-(7-methoxy-indan-1-ylamino)-quinolin-6-yl]-urea]",2.7 nM
8,"COc1cccc2c1C(Nc1ccc3cc(NC(=O)NC4CCN(CCC(F)(F)F)CC4)ccc3n1)CC2 (racemic) [Example 47, rac-1-[2-(7-Methoxy-indan-1-ylamino)-quinolin-6-yl]-3-[1-(3,3,3-trifluoro-propyl)-piperidin-4-yl]-urea]",3 nM
9,"COc1cccc2c1C(Nc1ccc3cc(NC(=O)NC4CC5CCCC(C4)N5C)ccc3n1)CC2 (racemic) [Example 50, rac-1-[2-(7-Methoxy-indan-1-ylamino)-quinolin-6-yl]-(9-methyl-9-aza-bicyclo[3.3.1]non-3-yl)-urea]",5.2 nM
10,"COc1cccc2c1C(Nc1ccc3cc(NC(=O)NC4CCN(CCSC)CC4)ccc3n1)CC2 (racemic) [Example 51, rac-1-[2-(7-Methoxy-indan-1-ylamino)-quinolin-6-yl]-3-[1-(2-methylsulfanyl-ethyl)-piperidin-4-yl]-urea]",3.9 nM
11,"COc1cccc2c1C(Nc1ccc3cc(NC(=O)NC4CCN(C(=O)CC(F)(F)F)CC4)ccc3n1)CC2 (racemic) [Example 52, rac-1-[2-(7-Methoxy-indan-1-ylamino)-quinolin-6-yl]-3-[1-(3,3,3-trifluoro-propionyl)-piperidin-4-yl]-urea]",7.5 nM
12,"COc1cccc2c1C(Nc1ccc3cc(NC(=O)NC4CCN(C5CC5)CC4)ccc3n1)CC2 (racemic) [Example 53, rac-1-(1-Cyclopropyl-piperidin-4-yl)-3-[2-(7-methoxy-indan-1-ylamino)-quinolin-6-yl]-urea]",3.1 nM
13,"COc1cccc2c1C(Nc1ccc3cc(NC(=O)NC4CCN(C5CC5)CC4)ccc3n1)CCC2 (racemic) [Example 55, rac-1-(1-Cyclopropyl-piperidin-4-yl)-3-[2-(8-methoxy-1,2,3,4-tetrahydro-naphthalen-1-ylamino)-quinolin-6-yl]-urea]",9.7 nM
14,"COc1cccc2c1C(Nc1ccc3cc(NC(=O)NC4CCN(C)CC4)ccc3n1)CCC2 (racemic) [Example 57, rac-1-[2-(8-Methoxy-1,2,3,4-tetrahydro-naphthalen-1-ylamino)-quinolin-6-yl]-3-(1-methyl-piperidin-4-yl)-urea]",5.8 nM
15,"COCCN1CCC(NC(=O)Nc2ccc3nc(NC4CCCc5cccc(OC)c54)ccc3c2)CC1 (racemic) [Example 58, rac-1-[1-(2-Methoxy-ethyl)-piperidin-4-yl]-3-[2-(8-methoxy-1,2,3,4-tetrahydro-naphthalen-1-ylamino)-quinolin-6-yl]-urea]",5.3 nM
16,"COc1cccc2c1C(Nc1ccc3cc(NC(=O)NC4CCN(CCF)CC4)ccc3n1)CCC2 (racemic) [Example 59, rac-1-[1-(2-Fluoro-ethyl)-piperidin-4-yl]-3-[2-(8-methoxy-1,2,3,4-tetrahydro-naphthalen-1-ylamino)-quinolin-6-yl]-urea]",5.9 nM
17,"COc1cccc2c1C(Nc1ccc3cc(NS(=O)(=O)N(C)C)ccc3n1)CC2 (racemic) [Example 68, rac-N′-{2-[(7-methoxy-2,3-dihydro-1H-inden-1-yl)amino]quinolin-6-yl}-N,N-dimethylsulfamide]",2.5 nM

row,SMILES,Ki
1,"COc1ccc(C)c2c1C(Nc1ccc3cc(NC(=O)NC(C)C)ccc3n1)CC2 (racemic) [Example 93, rac-1-Isopropyl-3-[2-(7-methoxy-4-methyl-indan-1-ylamino)-quinolin-6-yl]-urea]",8.7 nM
2,"CC(C)NC(=O)Nc1ccc2nc(NC3CCc4cc(F)ccc43)ccc2c1 (racemic) [Example 107, rac-1-[2-(5-Fluoro-indan-1-ylamino)-quinolin-6-yl]-3-isopropyl-urea]",4.4 nM
3,"CC(C)N1CCC(NC(=O)Nc2ccc3nc(NC4CCc5cc(F)ccc54)ccc3c2)CC1 (racemic) [Example 115, rac-1-[2-(5-Fluoro-indan-1-ylamino)-quinolin-6-yl]-3-(1-isopropyl-piperidin-4-yl)-urea]",4 nM
4,"COc1cc(C)cc2c1C(Nc1ccc3cc(NC(=O)NC(C)C)ccc3n1)CC2 (racemic) [Example 130, rac-1-Isopropyl-3-[2-(7-methoxy-5-methyl-indan-1-ylamino)-quinolin-6-yl]-urea]",3.4 nM
5,"COc1cc(C)cc2c1C(Nc1ccc3cc(NC(=O)NC4CCN(C)CC4)ccc3n1)CC2 (racemic) [Example 131, rac-1-[2-(7-Methoxy-5-methyl-indan-1-ylamino)-quinolin-6-yl]-3-(1-methyl-piperidin-4-yl)-urea]",2.9 nM
6,"COc1cccc2c1C(Nc1ccc3cc(NC(=O)CN4CCN(C)CC4)ccc3n1)CC2 (racemic) [Example 139, rac-N-[2-(7-Methoxy-indan-1-ylamino)-quinolin-6-yl]-2-(4-methyl-piperazin-1-yl)-acetamide]",4.4 nM
7,"COc1cccc2c1C(Nc1ccc3cc(NC(=O)C4CC4)ccc3n1)CC2 (racemic) [Example 140, rac-Cyclopropanecarboxylic acid [2-(7-methoxy-indan-1-ylamino)-quinolin-6-yl]-amide]",2.2 nM
8,"O=C(Nc1ccc2nc(NC3CCc4cc(F)ccc43)ccc2c1)C1CC1 (racemic) [Example 141, rac-Cyclopropanecarboxylic acid [2-(5-fluoro-indan-1-ylamino)-quinolin-6-yl]-amide]",8.6 nM
9,"CC(C)NC(=O)Nc1ccc2nc(NC3CCc4cccc(F)c43)ccc2c1 (racemic) [Example 146, rac-1-[2-(7-Fluoro-indan-1-ylamino)-quinolin-6-yl]-3-isopropyl-urea]",6.1 nM
10,"CC(C)N1CCC(NC(=O)Nc2ccc3nc(NC4CCc5ccc(F)cc54)ccc3c2)CC1 (racemic) [Example 155, rac-1-[2-(6-Fluoro-indan-1-ylamino)-quinolin-6-yl]-3-(1-isopropyl-piperidin-4-yl)-urea]",6.3 nM
11,"CC(C)N1CCC(NC(=O)Nc2ccc3nc(NC4CCc5cccc(F)c54)ccc3c2)CC1 (racemic) [Example 156, rac-1-[2-(7-Fluoro-indan-1-ylamino)-quinolin-6-yl]-3-(1-isopropyl-piperidin-4-yl)-urea]",3.8 nM
12,"O=C(Nc1ccc2nc(NC3CCc4cccc(F)c43)ccc2c1)C1CC1 (racemic) [Example 162, rac-Cyclopropanecarboxylic acid [2-(7-fluoro-indan-1-ylamino)-quinolin-6-yl]-amide]",8.3 nM
13,"COc1cccc2c1C(Nc1ccc3cc(N)ccc3n1)CC2 (racemic) [Example 172, rac-N^2-(7-Methoxy-indan-1-yl)-quinoline-2,6-diamine]",3.3 nM
14,"COc1cccc2c1C(Nc1ccc3cc(NC(=O)N(C)C4CCN(C(C)C)CC4)ccc3n1)CC2 (racemic) [Example 179, rac-1-(1-Isopropyl-piperidin-4-yl)-3-[2-(7-methoxy-indan-1-ylamino)-quinolin-6-yl]-1-methyl-urea]",7.1 nM
15,"COc1cccc2c1C(Nc1ccc3cc(NC(=O)NC4CCN(C(C)C)CC4)ccc3n1)CO2 (racemic) [Example 180, rac-1-(1-Isopropyl-piperidin-4-yl)-3-[2-(4-methoxy-2,3-dihydro-benzofuran-3-ylamino)-quinolin-6-yl]-urea]",2.8 nM
16,"CCOc1cccc2c1C(Nc1ccc3cc(NC(=O)NC4CCN(C(C)C)CC4)ccc3n1)CO2 (racemic) [Example 181, rac-1-[2-(4-Ethoxy-2,3-dihydro-benzofuran-3-ylamino)-quinolin-6-yl]-3-(1-isopropyl-piperidin-4-yl)-urea]",4.1 nM
